Here are results for eight molecules from patent US10053457B2, “Hydroxyalkyl-piperazine derivatives as CXCR3 receptor modulators” (IDORSIA PHARMACEUTICALS LTD, priority 2015, dated 2018).

Format in all cases: cell-based
The target in one series is CXCR3 (Homo sapiens (Human), UniProt P49682). As to the kind of experiment: Receptor internalization assay in human whole blood (CXCR3 surface expression on CD4 positive cells, CXCL10). The following applies: final CXCL10 9 nM, 30 min at 37° C., mean values. As for the experimental part:
Diluted compounds are then mixed with an equal volume of CXCL10 (Peprotech) diluted in PBS. Anticoagulated venous human whole blood is added to the mixture, which is then incubated in a CO2 incubator at 37° C. to allow for ligand mediated receptor internalization (final CXCL10 concentration is 9 nM). After 30 min, the blood is mixed with fluorescently labeled CXCR3 and CD4 specific antibodies (Becton Dickinson) and incubated on ice for 10 minutes. Samples are then mixed with BD FACS Lysing Solution (Becton Dickinson) in order to eliminate red blood cells. After washing the cells with PBS containing 0.5% BSA, the samples are then analyzed in a flow cytometer (FACS Canto II, Becton Dickinson). For data analysis using FACSDiva software (Becton Dickinson), the mean fluorescence corresponding to CXCR3 cell surface expression was determined on CD4 positive cells. The program GraphPad Prism or similar software is used to fit the data to a single site dose response curve and to calculate IC50 values.
(§1) In the case where IC50 values have been determined several times for the same compound, mean values are given.

The target in the next series is human CXCR3A (Homo sapiens (Human), UniProt P49682). As to the kind of experiment: FLIPR assay (CXCL10-induced calcium signal). As to conditions: CHO-K1 cells expressing human CXCR3A coupled to Galpha(16); CXCL10 agonist 20 nM; mean values.
Chain of human CXCR3A (P49682 whole entry): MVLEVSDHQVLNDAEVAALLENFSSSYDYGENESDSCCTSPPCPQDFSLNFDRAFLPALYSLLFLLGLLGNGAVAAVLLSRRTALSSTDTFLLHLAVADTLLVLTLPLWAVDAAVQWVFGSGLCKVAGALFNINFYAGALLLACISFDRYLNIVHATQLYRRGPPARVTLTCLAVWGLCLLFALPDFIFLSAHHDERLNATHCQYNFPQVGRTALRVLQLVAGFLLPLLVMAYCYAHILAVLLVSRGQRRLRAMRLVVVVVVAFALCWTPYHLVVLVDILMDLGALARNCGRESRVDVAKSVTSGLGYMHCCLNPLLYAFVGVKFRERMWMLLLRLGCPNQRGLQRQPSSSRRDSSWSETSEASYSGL
Source text: as §1

Another series deals with hERG K channel (Homo sapiens (Human), UniProt Q12809). As to the kind of experiment: hERG Q-Patch assay. The following applies: CHO cells expressing hERG, K+ tail current 3 min after application, mean of two or three experiments. As for the experimental part:
Compounds are evaluated for block of the hERG K channel using CHO cells stably expressing the hERG gene (accession number U04270, bSys, Witterswil, Switzerland) and the QPatch robotic platform (Sophion, Ballerup, Denmark) in single-cell mode at room temperature. Cells are grown in culture flasks at 37° C. in 5% CO2, in culture medium (Ham's F-12 Nutrient Mixture, Invitrogen 21765-029) supplemented with 9% (v/v) fetal calf serum, 0.9% Penicillin/Streptomycin (10,000 U/mL, Invitrogen 15140148), 100 μg/mL Hygromycin B (Invitrogen 10687010). When the cells are ˜80% confluent (every 2-3 days), they are either split for further culture or used for electrophysiology. For further culture, cells are detached with 0.25% Trypsin EDTA solution (Invitrogen 25200-056) and a fraction of the cells (10-30%) is reseeded in culture medium. For electrophysiology, on the experimental day, cells are detached with 0.25% Trypsin EDTA solution and all cells are suspended in suspension medium (293 SFM II, Invitrogen 11686-029) supplemented with 20 mM HEPES and 0.04 mg/mL Trypsin inhibitor. Cells are kept in suspension medium at 32-35° C. in the QPatch robot until use, at which time aliquots are transferred to the extracellular solution (in mM: NaCl 150; KCl 4; CaCl2 1.2; MgCl2 1; HEPES 10; pH 7.4 with NaOH) containing 0.3% v/v DMSO and applied to the test plates. K^+ currents are measured with the patch-voltage-clamp technique in the whole-cell configuration with the internal solution (in mM: KCl, 140; NaCl, 10; MgCl2, 1; HEPES, 10: EGTA, 5; pH=7.2 with KOH). Currents are low-pass filtered using the internal Bessel filter of the QPatch robot with a cut-off frequency of 2 kHz and are digitized at 10 kHz. K^+ tail currents are produced from a holding voltage of −80 mV by a 500-ms depolarization to +20 mV followed by a 500-ms repolarization to −40 mV; tail current amplitudes are measured at the end of the repolarization to −40 mV. The pulse pattern is repeated every 10 sec during the experiment, baseline K^+ current is measured after 3 min in extracellular solution, test-solution containing compound is then applied, and K^+ current in presence of compound is measured 3 minutes after application to the cells. The respective test-solution is prepared by (1) dissolving the test-compound in pure DMSO, (2) diluting this DMSO solution in extracellular solution, and (3) adding further DMSO, such that the final test-solution has a concentration of either 300 nM or 3000 nM of the test-compound and contains 0.3% v/v DMSO. Compound effects are quantified as % block by dividing the current in presence of compound by the baseline current; two or three experiments are performed for each compound and the final value represents the mean of the results of each experiment.
(In general: Block of hERG is tested as a sign of cardiac risk.)

pIC50: −log10 of the molar value.

Chain of CXCR3 (P49682 whole entry): as above
Chain of hERG K channel (Q12809 whole entry): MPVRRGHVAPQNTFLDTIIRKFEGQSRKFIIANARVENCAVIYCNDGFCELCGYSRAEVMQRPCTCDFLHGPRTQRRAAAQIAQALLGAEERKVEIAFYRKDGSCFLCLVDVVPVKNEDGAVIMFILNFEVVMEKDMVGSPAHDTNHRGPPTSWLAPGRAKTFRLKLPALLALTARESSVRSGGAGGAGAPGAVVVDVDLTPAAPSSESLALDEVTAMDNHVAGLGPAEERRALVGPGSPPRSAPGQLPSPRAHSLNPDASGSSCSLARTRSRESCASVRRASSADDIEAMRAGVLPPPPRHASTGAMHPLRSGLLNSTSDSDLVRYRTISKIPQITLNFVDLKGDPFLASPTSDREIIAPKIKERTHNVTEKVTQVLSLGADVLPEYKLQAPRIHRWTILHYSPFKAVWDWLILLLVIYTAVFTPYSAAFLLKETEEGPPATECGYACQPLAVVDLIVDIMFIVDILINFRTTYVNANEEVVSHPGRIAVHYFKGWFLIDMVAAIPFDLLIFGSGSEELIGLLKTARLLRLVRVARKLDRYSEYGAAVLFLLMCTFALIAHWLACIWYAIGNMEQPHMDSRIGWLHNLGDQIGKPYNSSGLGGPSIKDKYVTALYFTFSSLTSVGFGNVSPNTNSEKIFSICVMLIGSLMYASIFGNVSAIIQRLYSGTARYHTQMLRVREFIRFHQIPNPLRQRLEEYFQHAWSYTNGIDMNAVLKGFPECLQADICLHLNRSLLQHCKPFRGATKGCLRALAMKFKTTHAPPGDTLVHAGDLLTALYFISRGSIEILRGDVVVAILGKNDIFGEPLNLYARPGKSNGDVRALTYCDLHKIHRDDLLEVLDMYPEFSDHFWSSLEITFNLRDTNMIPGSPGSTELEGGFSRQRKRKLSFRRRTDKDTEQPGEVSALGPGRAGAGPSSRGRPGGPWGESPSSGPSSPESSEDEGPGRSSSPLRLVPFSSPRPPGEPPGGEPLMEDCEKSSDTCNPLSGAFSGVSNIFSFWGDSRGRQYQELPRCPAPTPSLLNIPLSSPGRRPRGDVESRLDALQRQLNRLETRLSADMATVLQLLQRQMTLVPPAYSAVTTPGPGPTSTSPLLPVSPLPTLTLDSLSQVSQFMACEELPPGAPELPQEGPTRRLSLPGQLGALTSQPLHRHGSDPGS

Regarding `O=C(Cn1cnc(C(F)(F)F)n1)N1CCN(c2sc(C(F)(F)F)nc2-c2cnc(C3CC3)nc2)C[C@H]1CO` [Example 9, 1-{(S)-4-[4-(2-Cyclopropyl-pyrimidin-5-yl)-2-trifluoromethyl-thiazol-5-yl]-2-hydroxymethyl-piperazin-1-yl}-2-(3-trifluoromethyl-[1,2,4]triazol-1-yl)-ethanone], the negative logarithm of the IC50 (pIC50) (usually −log10 of the IC50, conventionally taken in molar units) is 5.82 on CXCR3 and 8.89 on human CXCR3A. For the same molecule, the results for the “% block” value on hERG K channel (concentration 300 nM) and at hERG K channel (concentration 3000 nM) were 8% and 24%, respectively.

Turning to `CC(C)c1ncn(CC(=O)N2CCN(c3sc(C(F)(F)F)nc3-c3ccc(C(F)(F)F)nc3)C[C@@H]2CO)n1` [Example 10, 1-{(R)-2-Hydroxymethyl-4-[2-trifluoromethyl-4-(6-trifluoromethyl-pyridin-3-yl)-thiazol-5-yl]-piperazin-1-yl}-2-(3-isopropyl-[1,2,4]triazol-1-yl)-ethanone], the results for the pIC50 at CXCR3 and on human CXCR3A were 6.02 and 8.96, respectively. The “% block” value at hERG K channel (concentration 300 nM) is 2%; at hERG K channel (concentration 3000 nM) it was 12%.

Take `CC(C)c1ncn(CC(=O)N2CCN(c3sc(C(F)(F)F)nc3-c3cnc(C(F)(F)F)nc3)C[C@@H]2CO)n1` [Example 11, 1-{(R)-2-Hydroxymethyl-4-[2-trifluoromethyl-4-(2-trifluoromethyl-pyrimidin-5-yl)-thiazol-5-yl]-piperazin-1-yl}-2-(3-isopropyl-[1,2,4]triazol-1-yl)-ethanone]: the values for the pIC50 on CXCR3 and on human CXCR3A were 6.47 and 8.47, respectively. Further, the figures for the “% block” value on hERG K channel (concentration 300 nM) and at hERG K channel (concentration 3000 nM) were 5% and 11%, respectively.

For `Cc1nc(C)n(CC(=O)N2CCN(c3sc(C(F)(F)F)nc3-c3cnc(C(F)(F)F)nc3)C[C@@H]2CO)n1` [Example 12, 2-(3,5-Dimethyl-[1,2,4]triazol-1-yl)-1-{(R)-2-hydroxymethyl-4-[2-trifluoromethyl-4-(2-trifluoromethyl-pyrimidin-5-yl)-thiazol-5-yl]-piperazin-1-yl}-ethanone], the pIC50 on CXCR3 was 6.49; on human CXCR3A it was 8.16. For the same molecule, the “% block” value at hERG K channel (concentration 300 nM) stood at 1%; on hERG K channel (concentration 3000 nM), 3%.

Consider `O=C(Cn1cnc2ccccc21)N1CCN(c2sc(C(F)(F)F)nc2-c2cnc(C(F)(F)F)nc2)C[C@@H]1CO` [Example 13, 2-Benzoimidazol-1-yl-1-{(R)-2-hydroxymethyl-4-[2-trifluoromethyl-4-(2-trifluoromethyl-pyrimidin-5-yl)-thiazol-5-yl]-piperazin-1-yl}-ethanone], for which the pIC50 against CXCR3 was 5.98; at human CXCR3A, 8.92. The figures for the “% block” value on hERG K channel (concentration 300 nM) and on hERG K channel (concentration 3000 nM) were 5% and 17%, respectively.

Take `O=C(Cn1ccc2cc(F)ccc21)N1CCN(c2sc(C(F)(F)F)nc2-c2cnc(C(F)(F)F)nc2)C[C@@H]1CO` [Example 14, 2-(5-Fluoro-indol-1-yl)-1-{(R)-2-hydroxymethyl-4-[2-trifluoromethyl-4-(2-trifluoromethyl-pyrimidin-5-yl)-thiazol-5-yl]-piperazin-1-yl}-ethanone]: the pIC50 was 6.70 against CXCR3 and 9.15 at human CXCR3A. Further, the “% block” value on hERG K channel (concentration 300 nM) came to 14%; at hERG K channel (concentration 3000 nM) it was 62%.

For the molecule `COc1ccc2c(ccn2CC(=O)N2CCN(c3sc(C(F)(F)F)nc3-c3cnc(C(F)(F)F)nc3)C[C@@H]2CO)c1` [Example 15, 1-{(R)-2-Hydroxymethyl-4-[2-trifluoromethyl-4-(2-trifluoromethyl-pyrimidin-5-yl)-thiazol-5-yl]-piperazin-1-yl}-2-(5-methoxy-indol-1-yl)-ethanone], the pIC50 was 5.78 on CXCR3 and 8.64 at human CXCR3A. Further, the “% block” value on hERG K channel (concentration 300 nM) worked out at 8%; on hERG K channel (concentration 3000 nM), 35%.

Turning to `Cc1ncn(CC(=O)N2CCN(c3sc(C(F)(F)F)nc3-c3cnc(C(F)(F)F)nc3)C[C@@H]2CO)n1` [Example 16, 1-{(R)-2-Hydroxymethyl-4-[2-trifluoromethyl-4-(2-trifluoromethyl-pyrimidin-5-yl)-thiazol-5-yl]-piperazin-1-yl}-2-(3-methyl-[1,2,4]triazol-1-yl)-ethanone], the figures for the pIC50 on CXCR3 and on human CXCR3A were 6.27 and 8.41, respectively. Also, the “% block” value at hERG K channel (concentration 300 nM) and on hERG K channel (concentration 3000 nM) was 1% throughout.
